Reference: paper PMC6720008, “A Novel Peptide Ameliorates LPS-Induced Intestinal Inflammation and Mucosal Barrier Damage via Its Antioxidant and Antiendotoxin Effects” (International Journal of Molecular Sciences, 2019)
Like-named read-outs stand apart in the source and are kept apart here. Ends that are not written are not given here.

Columns and labels:
[1] = Ex vivo stability in plasma; format: in vitro ADME, rat
Description: Figure 2 The mean plasma concentrations of LL-37, TP5, and LTP over times. The concentration of each target peptide in plasma in vitro at the selected times was quantified by HPLC.
Rat plasma was collected from healthy adult rats by centrifugation of whole blood samples. LL-37, TP5, and LTP were directly added to rat plasma (10 μg/mL), after which the plasma samples were incubated in a 37 °C water bath. At different times, the samples were collected into pre-chilled tubes which contained 1 mL of acidic acetone (hydrochloric acid/acetone/H2O, 1:40:5, by volume). Subsequently, the mixture was centrifuged at 2 × 10^4 rpm at 4 °C for 20 min. The precipitates were dried in vacuo, after which the dried precipitates were dissolved in 0.5 mL of 1 M acetic acid. The peptide analysis was carried out according to the protocol for the study of TP5 using HPLC [64]. The half-lives of the peptides were calculated by a logarithm-linear regression analysis of the peptide concentrations.

[2] = In vitro LPS neutralization, chromogenic end-point TAL assay; format: biochemical; conditions: LPS 1.0 U/mL, peptide 0 to 64 μg/mL, 37 °C 15 min, absorbance 540 nm, three biological replicates
Description: Figure 9 LPS neutralization activity of LTP in vitro and in vivo. (A) The LPS concentration in mouse plasma. (B) In-vitro LPS neutralization by LTP. LPS neutralization activity of LTP, LL-37, TP5, and PMB were determined using the chromogenic in vitro TAL assay. Data are presented as the mean value ± standard error from three biological replicates. *: p ≤ 0.05, ****: p ≤ 0.0001.
The neutralization of LPS by the peptides was detected using a quantitative Chromogenic End-point Tachypleus Amebocyte Lysate (CE TAL) assay with the QCL-1000 kit (Xiamen, China). Experiments were carried out according to the institutional guidelines. A constant concentration of LPS (1.0 U/mL final concentration) was incubated with different concentrations of polymyxin B (PMB) or the peptides (0 to 64 μg/mL final concentration) at 37 °C for 15 min in the wells of pyrogenic sterile microliters plates. Subsequently, the mixtures were incubated at 37 °C for 6 min in the presence of TAL assay reagent, after which the absorbances were measured at 540 nm.

[3] = tested on: RAW264.7 macrophage cells; conditions: CCK-8, 24 h or 72 h
Description: RAW264.7 cells were pre-seeded in DMEM medium overnight. The cells were treated with various concentrations of peptides or without peptides at 37 °C and 5% CO2 for 24 h (A) or 72 h (B). They were incubated with CCK-8 solution for 4 h, and then, they were measured at 450 nm. Data are given as the mean value ± standard error from eight biological replicates. *: p ≤ 0.05, **: p ≤ 0.01, ***: p ≤ 0.001.
The murine macrophage cell line RAW264.7 was purchased from the Shanghai Cell Bank, the Institute of Cell Biology, China Academy of Sciences (Shanghai, China). RAW264.7 cells were cultured in Dulbecco’s modified Eagle’s medium (DMEM; Hyclone, Logan, UT, USA) supplemented with 10% (v/v) foetal bovine serum (Bioscience) and 1% (v/v) penicillin/streptomycin (Hyclone) in a 37 °C humidified incubator containing 5% CO2.
The viability of peptide-treated RAW264.7 cells was measured using the Cell Counting Kit-8 (CCK-8) Assay Kit (Dojindo, Japan) [63]. The cells were pre-seeded on a 96-well plate at a density of 3 × 10^4 cells/mL overnight. […] The absorbance at 450 nm was measured with a microplate reader. Cell viability was calculated as: Cell viability (%) = (OD450 (sample)/OD450(control)) × 100%(1) where OD450 (sample) is the absorbance at 450 nm of the cells with peptides treated, and OD450 (control) is the absorbance at 450 nm of the cells without peptides treated.

[4] = rat plasma, peptide 10 μg/mL, 37 °C water bath, HPLC, logarithm-linear regression, mean ± standard error, three biological replicates, read-out: t1/2

**Q.** With RKDVY [TP5, Thymopentin] as the compound, how does the half-life at 10 μg/mL [1, 4] read?
**A.** The half-life at 10 μg/mL was 1.32 ± 0.24 min.

**Q.** And the metabolised at 5 min, 10 μg/mL ([1]; rat plasma, peptide 10 μg/mL, 37 °C, HPLC, three biological replicates, read-out: decrease of plasma concentration after incubation for 5 min)?
**A.** Its metabolised at 5 min, 10 μg/mL is 95%.

**Q.** With polymyxin B [PMB] as the compound, how does the “50% binding rate value (LPS neutralization)” value [2] read?
**A.** The value was 1 µg/mL.

**Q.** What does the source list for IGKEFKRIVQRIKDFLRNLVPRTERKDVY [LTP]?
**A.** half-life at 10 μg/mL [1, 4]: 240 ± 55.1 min; half-life in plasma t1/2: 240 min; cytotoxicity on RAW264.7 cells compared with the parental peptides ([3]; eight biological replicates): lower cytotoxicity than LL-37 and TP5; cytotoxicity towards RAW264.7 cells ([3]; highest concentration of 60 μg/mL, 37 °C, 5% CO2, absorbance 450 nm, mean of eight biological replicates): no significant cytotoxicity

**Q.** Which half-life at 10 μg/mL ([1]; rat, plasma) does the source give for `CC[C@H](C)[C@H](NC(=O)[C@H](CCCCN)NC(=O)[C@H](CCC(=O)O)NC(=O)[C@H](CCCCN)NC(=O)[C@H](CO)NC(=O)[C@H](CCCCN)NC(=O)[C@H](CCCNC(=N)N)NC(=O)[C@H](Cc1ccccc1)NC(=O)[C@H](Cc1ccccc1)NC(=O)[C@H](CC(=O)O)NC(=O)CNC(=O)[C@H](CC(C)C)NC(=O)[C@@H](N)CC(C)C)C(=O)NCC(=O)N[C@@H](CCCCN)C(=O)N[C@@H](CCC(=O)O)C(=O)N[C@@H](Cc1ccccc1)C(=O)N[C@@H](CCCCN)C(=O)N[C@@H](CCCNC(=N)N)C(=O)N[C@H](C(=O)N[C@H](C(=O)N[C@@H](CCC(N)=O)C(=O)N[C@@H](CCCNC(=N)N)C(=O)N[C@H](C(=O)N[C@@H](CCCCN)C(=O)N[C@@H](CC(=O)O)C(=O)N[C@@H](Cc1ccccc1)C(=O)N[C@@H](CC(C)C)C(=O)N[C@@H](CCCNC(=N)N)C(=O)N[C@@H](CC(N)=O)C(=O)N[C@@H](CC(C)C)C(=O)N[C@H](C(=O)N1CCC[C@H]1C(=O)N[C@@H](CCCNC(=N)N)C(=O)N[C@H](C(=O)N[C@@H](CCC(=O)O)C(=O)N[C@@H](CO)C(=O)O)[C@@H](C)O)C(C)C)[C@@H](C)CC)C(C)C)[C@@H](C)CC` [LL-37] here?
**A.** Its half-life at 10 μg/mL is 242 ± 45.1 min.
